Measured values as given in patent publication US9340590B2 (priority 2011, dated 2016).
Like-named read-outs stand apart in the source and are kept apart here. Positions of bridges follow the written chain, without caps; N, C: chain ends. Non-standard residues stand in square brackets, D forms with d. Residues, ends and D or L forms follow the SMILES beside them. Trp(1-Me) = Cn1cc(C[C@H](N)C(=O)O)c2ccccc21; 2Pal = N[C@@H](Cc1ccccn1)C(=O)O

Columns and labels:
Experiment in all cases: cell-based
hNav1.7 = hNav1.7 (Homo sapiens, UniProt Q15858); format: cell-based; settings: IonWorks Quattro
hNav1.5 = hNav1.5 (Homo sapiens, UniProt Q14524)
hNav1.3 = hNav1.3 (Homo sapiens, UniProt Q9NY46); settings: IonWorks Quattro, read-out: IWQ Use Nav1.3
[1] = use-dependent, […], read-out: IWQ Use Nav1.7
[2] = IonWorks Quattro, use-dependent, […], read-out: IWQ Use Nav1.5
[3] = use-dependent, […], read-out: IWQ Use Nav1.7 (μm)

Chain of hNav1.5 (Q14524 whole entry, looked up): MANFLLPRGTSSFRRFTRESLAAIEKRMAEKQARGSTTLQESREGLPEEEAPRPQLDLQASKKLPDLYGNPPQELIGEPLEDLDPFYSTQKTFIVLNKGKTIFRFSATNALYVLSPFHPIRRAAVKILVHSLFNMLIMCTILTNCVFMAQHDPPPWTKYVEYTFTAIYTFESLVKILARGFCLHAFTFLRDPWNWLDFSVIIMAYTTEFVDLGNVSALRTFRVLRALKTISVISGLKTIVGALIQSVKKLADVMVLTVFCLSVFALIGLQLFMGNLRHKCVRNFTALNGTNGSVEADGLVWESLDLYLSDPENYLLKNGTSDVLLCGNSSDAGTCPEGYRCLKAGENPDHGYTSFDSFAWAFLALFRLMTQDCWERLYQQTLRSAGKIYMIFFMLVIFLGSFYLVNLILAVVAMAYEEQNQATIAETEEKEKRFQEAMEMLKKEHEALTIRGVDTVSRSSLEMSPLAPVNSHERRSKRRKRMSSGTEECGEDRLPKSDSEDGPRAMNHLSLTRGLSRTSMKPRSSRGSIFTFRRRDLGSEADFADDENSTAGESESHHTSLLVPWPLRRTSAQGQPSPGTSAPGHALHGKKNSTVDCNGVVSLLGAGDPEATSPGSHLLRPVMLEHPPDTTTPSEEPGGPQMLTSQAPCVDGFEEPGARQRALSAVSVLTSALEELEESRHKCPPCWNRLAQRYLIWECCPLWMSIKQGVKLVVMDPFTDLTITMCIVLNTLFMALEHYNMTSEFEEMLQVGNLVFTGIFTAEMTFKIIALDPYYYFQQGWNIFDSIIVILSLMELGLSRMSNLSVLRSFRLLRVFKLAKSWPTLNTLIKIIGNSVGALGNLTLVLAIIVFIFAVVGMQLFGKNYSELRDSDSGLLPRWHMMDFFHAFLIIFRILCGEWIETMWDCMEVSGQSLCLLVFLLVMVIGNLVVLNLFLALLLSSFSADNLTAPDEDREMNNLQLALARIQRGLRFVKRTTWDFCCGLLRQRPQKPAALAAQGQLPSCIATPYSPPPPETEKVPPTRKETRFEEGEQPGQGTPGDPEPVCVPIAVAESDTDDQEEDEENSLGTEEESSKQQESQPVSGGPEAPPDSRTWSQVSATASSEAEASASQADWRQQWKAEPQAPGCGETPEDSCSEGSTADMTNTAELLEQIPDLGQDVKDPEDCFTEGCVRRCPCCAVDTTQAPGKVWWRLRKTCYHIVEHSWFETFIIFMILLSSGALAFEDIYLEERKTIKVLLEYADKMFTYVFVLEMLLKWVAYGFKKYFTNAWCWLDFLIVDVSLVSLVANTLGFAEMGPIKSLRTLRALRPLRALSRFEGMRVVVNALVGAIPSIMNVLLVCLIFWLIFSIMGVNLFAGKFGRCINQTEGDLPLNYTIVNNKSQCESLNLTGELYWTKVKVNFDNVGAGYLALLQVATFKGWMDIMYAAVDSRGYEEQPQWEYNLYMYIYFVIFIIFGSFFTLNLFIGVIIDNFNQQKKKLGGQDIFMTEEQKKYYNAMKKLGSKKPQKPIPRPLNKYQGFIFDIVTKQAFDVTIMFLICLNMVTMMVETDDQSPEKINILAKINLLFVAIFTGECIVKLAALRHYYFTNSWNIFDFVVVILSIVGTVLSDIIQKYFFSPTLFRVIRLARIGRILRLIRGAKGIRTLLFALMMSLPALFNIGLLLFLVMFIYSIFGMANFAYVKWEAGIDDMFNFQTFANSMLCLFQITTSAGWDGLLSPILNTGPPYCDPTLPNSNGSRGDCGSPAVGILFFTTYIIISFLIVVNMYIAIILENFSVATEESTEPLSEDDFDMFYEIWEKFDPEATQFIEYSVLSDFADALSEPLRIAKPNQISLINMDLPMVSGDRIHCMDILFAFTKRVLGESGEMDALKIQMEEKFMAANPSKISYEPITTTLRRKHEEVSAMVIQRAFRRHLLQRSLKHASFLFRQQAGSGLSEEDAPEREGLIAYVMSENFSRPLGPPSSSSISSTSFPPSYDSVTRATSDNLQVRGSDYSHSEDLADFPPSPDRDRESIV
Chain of hNav1.7 (Q15858 whole entry, looked up): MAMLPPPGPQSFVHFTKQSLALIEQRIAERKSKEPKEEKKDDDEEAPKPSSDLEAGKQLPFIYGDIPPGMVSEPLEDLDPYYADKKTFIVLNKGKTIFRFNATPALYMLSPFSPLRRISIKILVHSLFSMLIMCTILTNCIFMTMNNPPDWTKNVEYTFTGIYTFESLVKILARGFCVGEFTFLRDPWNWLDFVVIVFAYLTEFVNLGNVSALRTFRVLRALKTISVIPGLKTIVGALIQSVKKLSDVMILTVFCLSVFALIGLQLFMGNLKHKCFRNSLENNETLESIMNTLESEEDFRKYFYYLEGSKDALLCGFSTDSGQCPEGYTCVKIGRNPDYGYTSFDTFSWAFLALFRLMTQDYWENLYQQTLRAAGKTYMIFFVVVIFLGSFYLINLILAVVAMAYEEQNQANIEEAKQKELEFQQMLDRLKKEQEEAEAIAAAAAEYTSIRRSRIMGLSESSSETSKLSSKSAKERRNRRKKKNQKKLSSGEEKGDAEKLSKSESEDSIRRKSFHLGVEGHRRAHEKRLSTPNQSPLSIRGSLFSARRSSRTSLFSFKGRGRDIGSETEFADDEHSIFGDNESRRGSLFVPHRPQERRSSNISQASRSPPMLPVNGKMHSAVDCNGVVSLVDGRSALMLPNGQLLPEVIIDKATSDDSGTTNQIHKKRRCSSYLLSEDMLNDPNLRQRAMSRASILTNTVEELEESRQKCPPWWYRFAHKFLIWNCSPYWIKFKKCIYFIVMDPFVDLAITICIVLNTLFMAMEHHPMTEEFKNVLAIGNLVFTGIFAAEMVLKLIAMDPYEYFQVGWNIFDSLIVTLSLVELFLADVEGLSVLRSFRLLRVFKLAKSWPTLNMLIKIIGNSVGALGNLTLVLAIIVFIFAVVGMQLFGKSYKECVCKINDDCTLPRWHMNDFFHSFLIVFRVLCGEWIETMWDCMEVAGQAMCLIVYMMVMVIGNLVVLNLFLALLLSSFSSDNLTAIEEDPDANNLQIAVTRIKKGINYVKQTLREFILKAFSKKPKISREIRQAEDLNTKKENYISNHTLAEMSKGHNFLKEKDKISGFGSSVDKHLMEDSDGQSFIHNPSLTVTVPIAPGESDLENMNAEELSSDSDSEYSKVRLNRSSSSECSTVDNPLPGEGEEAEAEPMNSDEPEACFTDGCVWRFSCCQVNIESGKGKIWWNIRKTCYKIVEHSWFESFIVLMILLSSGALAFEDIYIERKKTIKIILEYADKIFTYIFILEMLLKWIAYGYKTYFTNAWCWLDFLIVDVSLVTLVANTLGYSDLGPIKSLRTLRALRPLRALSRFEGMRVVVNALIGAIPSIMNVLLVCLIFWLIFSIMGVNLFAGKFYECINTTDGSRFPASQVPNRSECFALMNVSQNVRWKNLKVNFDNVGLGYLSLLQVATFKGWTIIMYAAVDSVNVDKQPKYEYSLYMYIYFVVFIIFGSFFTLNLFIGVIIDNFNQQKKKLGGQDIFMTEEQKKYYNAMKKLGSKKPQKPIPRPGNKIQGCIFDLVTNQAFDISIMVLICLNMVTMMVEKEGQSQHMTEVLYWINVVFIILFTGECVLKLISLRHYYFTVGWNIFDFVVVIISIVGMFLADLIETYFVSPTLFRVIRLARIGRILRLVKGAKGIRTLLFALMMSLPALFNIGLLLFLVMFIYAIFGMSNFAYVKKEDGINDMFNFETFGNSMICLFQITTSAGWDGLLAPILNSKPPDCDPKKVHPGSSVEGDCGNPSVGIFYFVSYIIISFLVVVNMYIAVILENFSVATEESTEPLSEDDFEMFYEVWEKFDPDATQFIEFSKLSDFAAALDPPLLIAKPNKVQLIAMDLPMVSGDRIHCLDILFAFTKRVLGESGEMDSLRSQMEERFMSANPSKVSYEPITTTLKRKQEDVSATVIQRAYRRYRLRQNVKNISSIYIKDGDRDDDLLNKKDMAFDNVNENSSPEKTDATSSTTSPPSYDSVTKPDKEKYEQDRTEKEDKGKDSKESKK

| Structure (SMILES) | IC50 (hNav1.7; [1]) [µM] | IC50 (hNav1.5; [2]) [µM] | IC50 (hNav1.3; use-dependent, […]) [µM] | IC50 (hNav1.7; [3]) [µM] | IC50 (hNav1.5; IWQ Use Nav1.5 (μM)) [µM] | IC50 (hNav1.7; use-dependent block, hNav1.7, read-out: IWQ Use Nav1.7) [µM] | IC50 (hNav1.5; IonWorks Quattro, use-dependent block, hNav1.5, read-out: IWQ Use Nav1.5) [µM] | IC50 (hNav1.3; use-dependent block, hNav1.3) [µM] |
| --- | --- | --- | --- | --- | --- | --- | --- | --- |
| CC[C@H](C)[C@@H]1NC(=O)[C@@H]2CSSC[C@@H]3NC(=O)[C@H](C(C)C)NC(=O)[C@H](CC(C)C)NC(=O)[C@H](CC(N)=O)NC(=O)[C@@H]4CCCN4C(=O)[C@H](CCCNC(=N)N)NC(=O)[C@H](CSSC[C@H](NC(=O)[C@@H](N)CC(=O)O)C(=O)N[C@@H](CC(C)C)C(=O)NCC(=O)N[C@@H](Cc4ccccc4)C(=O)N[C@@H](CCSC)C(=O)N[C@@H](CCCNC(=N)N)C(=O)N[C@@H](CCCCN)C(=O)N2)NC(=O)[C@H](CSSC[C@@H](C(=O)N[C@@H](CCCCN)C(=O)N[C@@H](Cc2ccc(O)cc2)C(=O)N[C@H](C(=O)N(C)[C@@H](Cc2ccccc2)C(N)=O)C(C)C)NC(=O)[C@H](Cc2c[nH]c4ccccc24)NC(=O)[C@H](CCCCN)NC(=O)[C@H](Cc2c[nH]cn2)NC(=O)[C@H]([C@@H](C)O)NC(=O)[C@H](CCCNC(=N)N)NC(=O)[C@H](CO)NC3=O)NC(=O)[C@H](CCCCN)NC(=O)[C@H](CC(=O)O)NC(=O)[C@H](CC(N)=O)NC(=O)[C@H](CC(=O)O)NC(=O)[C@@H]2CCCN2C1=O [compound 408] | 10 | 18.8 | 4.56 | – | – | – | – | – |
| CC[C@H](C)[C@@H]1NC(=O)[C@@H]2CSSC[C@@H]3NC(=O)[C@H](C(C)C)NC(=O)[C@H](CC(C)C)NC(=O)[C@H](CC(N)=O)NC(=O)[C@@H]4CCCN4C(=O)[C@H](CCCNC(=N)N)NC(=O)[C@H](CSSC[C@H](NC(=O)[C@@H](N)CC(=O)O)C(=O)N[C@@H](CC(C)C)C(=O)NCC(=O)N[C@@H](Cc4ccccc4)C(=O)N[C@@H](CCSC)C(=O)N[C@@H](CCCNC(=N)N)C(=O)N[C@@H](CCCCN)C(=O)N2)NC(=O)[C@H](CSSC[C@@H](C(=O)N[C@@H](CCCCN)C(=O)N[C@@H](Cc2ccc(O)cc2)C(=O)N[C@H](C(=O)N[C@@H](Cc2cn(C)c4ccccc24)C(N)=O)C(C)C)NC(=O)[C@H](Cc2c[nH]c4ccccc24)NC(=O)[C@H](CCCCN)NC(=O)[C@H](Cc2c[nH]cn2)NC(=O)[C@H]([C@@H](C)O)NC(=O)[C@H](CCCNC(=N)N)NC(=O)[C@H](CO)NC3=O)NC(=O)[C@H](CCCCN)NC(=O)[C@H](CC(=O)O)NC(=O)[C@H](CC(N)=O)NC(=O)[C@H](CC(=O)O)NC(=O)[C@@H]2CCCN2C1=O [compound 409] (H-DCLGFMRKCIPDNDKCCRPNLVCSRTHKWCKYV[Trp(1-Me)]-NH2; disulfide 2-17, 9-23, 16-30) | 0.09 | 5.61 | 0.07 | – | – | – | – | – |
| CC[C@H](C)[C@@H]1NC(=O)[C@@H]2CSSC[C@@H]3NC(=O)[C@H](C(C)C)NC(=O)[C@H](CC(C)C)NC(=O)[C@H](CC(N)=O)NC(=O)[C@@H]4CCCN4C(=O)[C@H](CCCNC(=N)N)NC(=O)[C@H](CSSC[C@H](NC(=O)[C@@H](N)CC(=O)O)C(=O)N[C@@H](CC(C)C)C(=O)NCC(=O)N[C@@H](Cc4ccccc4)C(=O)N[C@@H](CCSC)C(=O)N[C@@H](CCCNC(=N)N)C(=O)N[C@@H](CCCCN)C(=O)N2)NC(=O)[C@H](CSSC[C@@H](C(=O)N[C@@H](CCCCN)C(=O)N[C@@H](Cc2ccc(O)cc2)C(=O)N[C@H](C(=O)N[C@@H](Cc2ccc(C(=O)O)cc2)C(N)=O)C(C)C)NC(=O)[C@H](Cc2c[nH]c4ccccc24)NC(=O)[C@H](CCCCN)NC(=O)[C@H](Cc2c[nH]cn2)NC(=O)[C@H]([C@@H](C)O)NC(=O)[C@H](CCCNC(=N)N)NC(=O)[C@H](CO)NC3=O)NC(=O)[C@H](CCCCN)NC(=O)[C@H](CC(=O)O)NC(=O)[C@H](CC(N)=O)NC(=O)[C@H](CC(=O)O)NC(=O)[C@@H]2CCCN2C1=O [compound 410] | 9.19 | 7.11 | 6.31 | – | – | – | – | – |
| CC[C@H](C)[C@@H]1NC(=O)[C@@H]2CSSC[C@@H]3NC(=O)[C@H](C(C)C)NC(=O)[C@H](CC(C)C)NC(=O)[C@H](CC(N)=O)NC(=O)[C@@H]4CCCN4C(=O)[C@H](CCCNC(=N)N)NC(=O)[C@H](CSSC[C@H](NC(=O)[C@@H](N)CC(=O)O)C(=O)N[C@@H](CC(C)C)C(=O)NCC(=O)N[C@@H](Cc4ccccc4)C(=O)N[C@@H](CCSC)C(=O)N[C@@H](CCCNC(=N)N)C(=O)N[C@@H](CCCCN)C(=O)N2)NC(=O)[C@H](CSSC[C@@H](C(=O)N[C@@H](CCCCN)C(=O)N[C@@H](Cc2ccc(O)cc2)C(=O)N[C@H](C(=O)N[C@@H](Cc2ccccn2)C(N)=O)C(C)C)NC(=O)[C@H](Cc2c[nH]c4ccccc24)NC(=O)[C@H](CCCCN)NC(=O)[C@H](Cc2c[nH]cn2)NC(=O)[C@H]([C@@H](C)O)NC(=O)[C@H](CCCNC(=N)N)NC(=O)[C@H](CO)NC3=O)NC(=O)[C@H](CCCCN)NC(=O)[C@H](CC(=O)O)NC(=O)[C@H](CC(N)=O)NC(=O)[C@H](CC(=O)O)NC(=O)[C@@H]2CCCN2C1=O [compound 411] (H-DCLGFMRKCIPDNDKCCRPNLVCSRTHKWCKYV[2Pal]-NH2; disulfide 2-17, 9-23, 16-30) | 5.82 | 8.16 | 4.83 | – | – | – | – | – |
| CC[C@H](C)[C@@H]1NC(=O)[C@@H]2CSSC[C@@H]3NC(=O)[C@H](C(C)C)NC(=O)[C@H](CC(C)C)NC(=O)[C@H](CC(N)=O)NC(=O)[C@@H]4CCCN4C(=O)[C@H](CCCNC(=N)N)NC(=O)[C@H](CSSC[C@H](NC(=O)[C@@H](N)CC(=O)O)C(=O)N[C@@H](CC(C)C)C(=O)NCC(=O)N[C@@H](Cc4ccccc4)C(=O)N[C@@H](CCSC)C(=O)N[C@@H](CCCNC(=N)N)C(=O)N[C@@H](CCCCN)C(=O)N2)NC(=O)[C@H](CSSC[C@@H](C(=O)N[C@@H](CCCCN)C(=O)N[C@@H](Cc2ccc(O)cc2)C(=O)N[C@H](C(=O)N[C@@H](Cc2ccccc2)C(=O)N[C@@H](Cc2ccc(C(=O)O)cc2)C(N)=O)C(C)C)NC(=O)[C@H](Cc2c[nH]c4ccccc24)NC(=O)[C@H](CCCCN)NC(=O)[C@H](Cc2c[nH]cn2)NC(=O)[C@H]([C@@H](C)O)NC(=O)[C@H](CCCNC(=N)N)NC(=O)[C@H](CO)NC3=O)NC(=O)[C@H](CCCCN)NC(=O)[C@H](CC(=O)O)NC(=O)[C@H](CC(N)=O)NC(=O)[C@H](CC(=O)O)NC(=O)[C@@H]2CCCN2C1=O [compound 413] | – | 8.65 | 5.35 | 1.15 | – | – | – | – |
| CC[C@H](C)[C@@H]1NC(=O)[C@@H]2CSSC[C@@H]3NC(=O)[C@H](C(C)C)NC(=O)[C@H](CC(C)C)NC(=O)[C@H](CC(N)=O)NC(=O)[C@@H]4CCCN4C(=O)[C@H](CCCNC(=N)N)NC(=O)[C@H](CSSC[C@H](NC(=O)[C@@H](N)CC(=O)O)C(=O)N[C@@H](CC(C)C)C(=O)NCC(=O)N[C@@H](Cc4ccccc4)C(=O)N[C@@H](CCSC)C(=O)N[C@@H](CCCNC(=N)N)C(=O)N[C@@H](CCCCN)C(=O)N2)NC(=O)[C@H](CSSC[C@@H](C(=O)N[C@@H](CCCCN)C(=O)N[C@@H](Cc2ccc(O)cc2)C(=O)N[C@H](C(=O)N[C@@H](Cc2ccccc2)C(=O)N[C@@H](Cc2ccccn2)C(N)=O)C(C)C)NC(=O)[C@H](Cc2c[nH]c4ccccc24)NC(=O)[C@H](CCCCN)NC(=O)[C@H](Cc2c[nH]cn2)NC(=O)[C@H]([C@@H](C)O)NC(=O)[C@H](CCCNC(=N)N)NC(=O)[C@H](CO)NC3=O)NC(=O)[C@H](CCCCN)NC(=O)[C@H](CC(=O)O)NC(=O)[C@H](CC(N)=O)NC(=O)[C@H](CC(=O)O)NC(=O)[C@@H]2CCCN2C1=O [compound 414] | – | 9.29 | 0.63 | 0.26 | – | – | – | – |
| CC[C@H](C)[C@@H]1NC(=O)[C@@H]2CSSC[C@@H]3NC(=O)[C@H](C(C)C)NC(=O)[C@H](CC(C)C)NC(=O)[C@H](CC(N)=O)NC(=O)[C@@H]4CCCN4C(=O)[C@H](CCCNC(=N)N)NC(=O)[C@H](CSSC[C@H](NC(=O)[C@@H](N)CC(=O)O)C(=O)N[C@@H](CC(C)C)C(=O)NCC(=O)N[C@@H](Cc4ccccc4)C(=O)N[C@@H](CCSC)C(=O)N[C@@H](CCCNC(=N)N)C(=O)N[C@@H](CCCCN)C(=O)N2)NC(=O)[C@H](CSSC[C@@H](C(=O)N[C@@H](CCCCN)C(N)=O)NC(=O)[C@H](Cc2c[nH]c4ccccc24)NC(=O)[C@H](CCCCN)NC(=O)[C@H](Cc2cnc[nH]2)NC(=O)[C@H]([C@@H](C)O)NC(=O)[C@H](CCCNC(=N)N)NC(=O)[C@H](CO)NC3=O)NC(=O)[C@H](CCCCN)NC(=O)[C@H](CC(=O)O)NC(=O)[C@H](CC(N)=O)NC(=O)[C@H](CC(=O)O)NC(=O)[C@@H]2CCCN2C1=O [compound 417] (H-DCLGFMRKCIPDNDKCCRPNLVCSRTHKWCK-NH2; disulfide 2-17, 9-23, 16-30) | – | – | 9.09 | 18.3 | 11.9 | – | – | – |
| CC[C@H](C)[C@@H]1NC(=O)[C@@H]2CSSC[C@@H]3NC(=O)[C@H](C(C)C)NC(=O)[C@H](CC(C)C)NC(=O)[C@H](CC(N)=O)NC(=O)[C@@H]4CCCN4C(=O)[C@H](CCCNC(=N)N)NC(=O)[C@H](CSSC[C@H](NC(=O)[C@@H](N)CC(=O)O)C(=O)N[C@@H](CC(C)C)C(=O)NCC(=O)N[C@@H](C)C(=O)N[C@@H](CCSC)C(=O)N[C@@H](CCCNC(=N)N)C(=O)N[C@@H](CCCCN)C(=O)N2)NC(=O)[C@H](CSSC[C@@H](C(=O)N[C@@H](CCCCN)C(=O)N[C@@H](Cc2ccc(O)cc2)C(=O)N[C@@H](CCC(=O)O)C(=O)N[C@@H](Cc2ccccc2)C(N)=O)NC(=O)[C@H](Cc2c[nH]c4ccccc24)NC(=O)[C@H](CCCCN)NC(=O)[C@H](Cc2c[nH]cn2)NC(=O)[C@H]([C@@H](C)O)NC(=O)[C@H](CCCNC(=N)N)NC(=O)[C@H](CO)NC3=O)NC(=O)[C@H](CCCCN)NC(=O)[C@H](CC(=O)O)NC(=O)[C@H](CC(N)=O)NC(=O)[C@H](CC(=O)O)NC(=O)[C@@H]2CCCN2C1=O [compound 419] (H-DCLGAMRKCIPDNDKCCRPNLVCSRTHKWCKYEF-NH2; disulfide 2-17, 9-23, 16-30) | – | – | – | – | – | 4 | 9.04 | 3.58 |
